Laboratory results as given in patent publication US5962294A, “Compositions and methods for the identification and synthesis of sialyltransferases” (The Regents of the University of California, priority 1993, dated 1999).
“Also recorded” adds a separate entry of the source.

Tests used:
ST3 = biological target: T1, ST3 (Homo sapiens, UniProt Q11206); test: Acceptor specificity of soluble ST3 (AZ3, concentrated COS-1 media); format: biochemical; details: for Relative rate (%) ST3: acceptor 0.2 mM
T1 construct: A truncated form of ST3, lacking the first 39 amino acids of the long-form open reading frame; made in house; host or cells: COS-1 (concentrated culture medium)
T1 sequence (Q11206 41-333): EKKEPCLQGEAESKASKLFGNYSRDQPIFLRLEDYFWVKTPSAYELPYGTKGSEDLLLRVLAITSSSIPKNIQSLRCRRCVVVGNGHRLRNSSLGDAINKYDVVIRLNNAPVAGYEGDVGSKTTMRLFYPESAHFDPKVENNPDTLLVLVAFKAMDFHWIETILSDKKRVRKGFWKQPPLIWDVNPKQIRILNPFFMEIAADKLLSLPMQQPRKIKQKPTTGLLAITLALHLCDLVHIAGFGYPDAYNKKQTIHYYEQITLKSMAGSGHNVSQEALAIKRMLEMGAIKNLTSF

ST3O = biological target: T2, ST3O (Sus scrofa, UniProt Q02745); test: Acceptor specificity of ST3O (Table 4); details: for Relative rate (%) ST30: acceptor 0.2 mM
T2 sequence (Q02745 28-343 limits assumed): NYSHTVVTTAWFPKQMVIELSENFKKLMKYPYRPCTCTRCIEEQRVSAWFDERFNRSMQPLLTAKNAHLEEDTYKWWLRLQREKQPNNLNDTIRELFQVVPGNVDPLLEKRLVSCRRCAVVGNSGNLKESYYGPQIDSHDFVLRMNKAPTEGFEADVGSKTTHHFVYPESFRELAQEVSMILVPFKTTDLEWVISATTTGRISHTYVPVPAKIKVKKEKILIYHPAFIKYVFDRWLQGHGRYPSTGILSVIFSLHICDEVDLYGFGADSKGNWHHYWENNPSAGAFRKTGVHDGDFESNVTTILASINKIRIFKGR

ST3N = biological target: T3, ST3N (Rattus norvegicus, UniProt Q02734); test: Acceptor specificity of ST3N (Table 4)
T3 sequence (Q02734 29-374 limits assumed): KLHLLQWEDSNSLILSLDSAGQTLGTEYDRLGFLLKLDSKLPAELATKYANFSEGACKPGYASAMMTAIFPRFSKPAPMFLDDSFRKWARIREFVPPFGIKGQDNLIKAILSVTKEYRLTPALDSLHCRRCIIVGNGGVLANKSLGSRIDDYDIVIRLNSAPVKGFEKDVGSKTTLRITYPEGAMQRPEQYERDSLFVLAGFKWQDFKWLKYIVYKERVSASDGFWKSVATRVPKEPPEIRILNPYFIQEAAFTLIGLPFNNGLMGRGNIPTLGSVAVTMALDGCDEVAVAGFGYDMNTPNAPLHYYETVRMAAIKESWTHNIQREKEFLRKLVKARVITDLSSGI

rat ST3N = biological target: T4, rat ST3N (Rattus norvegicus, UniProt Q02734); test: Acceptor specificity of soluble rat ST3N fusion protein (Table 3); details: acceptor 0.2 mM; relative to LNT
T4 sequence (Q02734 29-374 limits assumed): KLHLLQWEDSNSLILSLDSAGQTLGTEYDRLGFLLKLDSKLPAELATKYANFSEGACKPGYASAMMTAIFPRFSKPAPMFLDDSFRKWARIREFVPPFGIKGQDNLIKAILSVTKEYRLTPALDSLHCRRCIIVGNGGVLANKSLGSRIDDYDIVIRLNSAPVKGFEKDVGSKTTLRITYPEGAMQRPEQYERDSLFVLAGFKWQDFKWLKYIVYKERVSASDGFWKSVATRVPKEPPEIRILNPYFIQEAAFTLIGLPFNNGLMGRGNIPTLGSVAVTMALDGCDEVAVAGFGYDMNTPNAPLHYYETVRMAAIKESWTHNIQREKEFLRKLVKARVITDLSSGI

human ST3N = biological target: T5, human ST3N (Homo sapiens, UniProt Q11203); test: Acceptor specificity of soluble human ST3N (protein A fusion from COS-1 cells, on IgG Sepharose); details: acceptor 0.2 mM; relative to LNT
T5 sequence (Q11203 62-375): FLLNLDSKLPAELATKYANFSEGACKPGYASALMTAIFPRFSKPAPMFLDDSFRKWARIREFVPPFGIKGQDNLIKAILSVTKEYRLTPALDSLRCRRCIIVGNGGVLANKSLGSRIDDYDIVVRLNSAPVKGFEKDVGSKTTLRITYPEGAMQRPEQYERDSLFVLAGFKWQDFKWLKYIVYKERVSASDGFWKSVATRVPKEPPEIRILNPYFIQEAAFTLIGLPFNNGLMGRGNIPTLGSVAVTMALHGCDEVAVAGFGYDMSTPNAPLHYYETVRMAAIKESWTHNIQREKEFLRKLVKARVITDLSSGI

[1] = tested on: acceptor substrate antifreeze glycoprotein (AFGP); test: Sialyltransferase activity of purified porcine liver α2,3-0 sialyltransferase; format: biochemical; details: after third CDP-hexanolamine agarose column
Text: FIG. 4 Purification of the α2,3-0 sialyltransferase on CDP-hexanolamine agarose (column III, CDP elution). […] In columns A and B elution of enzyme activity correlated predominantly with 48 kDa and a 45 kDa protein species, respectively (see inset, SDS-PAGE). These two species, form A and form B of the α2,3 sialyltransferase, had specific activities of 8-10 units/mg protein. The 48 kDA and 45 kDA species were blotted to a PVDF membrane and analyzed by NH2 -terminal sequencing.
The enzyme was purified from a porcine liver Triton X-100 extract by affinity chromatography on three successive columns of CDP-hexanolamineagarose. The elution profile from the first and third purification steps are shown in FIG. 3 and FIG. 4, respectively. […] These two peaks were separated by combining the indicated fractions into pools A and B, these two pools were subsequently found to be enriched in two different molecular weight forms of the α2,3-0 sialyltransferase.
The membranes were extracted three times with buffer (Conradt, H. S. et al., in Sialic Acids 1988 Proceedings of the Japanese-German Symposium on Sialic Acids (Schauer and Yamakawa, eds.) pp. 104-105, Verlag Wissenschaft and Bildung, Kiel [1988]) and the extract was passed over a 1.5 l CDP-hexanolamine agarose column (column 1) (16 umol/ml). After washing the column with 3 L buffer B, the column was eluted with a linear gradient of 0.05 to 1.0 M KCL (2.5 l×2.5 l) in buffer B. Fractions containing α2,3 sialyltransferase were combined into two pools A and B, representing the main part and the trailing end of the peak, respectively (see FIG. 3). The pools were dialysed against buffer B and subjected to another round of affinity chromatography on CDP-hexanolamine agarose (columns IIA and IIB). A 150 ml column was used for pool A and a 30 ml column was used for pool B; two preparations from column I (from total of 4 kg liver) were loaded on the same column in step II. […]

Molecule | acceptor substrate for ST3 enzyme (in words) (ST3) | Relative rate (%) ST30 (ST3O) | Relative rate (%) ST3N (ST3N; acceptor 0.2 mM) | further results
Asialofetuin: glycoprotein acceptor (Galβ1,3GalNAc-Thr/Ser and Galβ1,4GlcNAc-R) | sialic acid was incorporated; also recorded: best acceptor | 26% | 18% | –
Galβ1,3GalNAcβ1,4Galβ1,4Glcβ1-Cer | preferred one | 88% | 8% | Relative rate (%) ST3 (ST3): 64%; acceptor substrate for ST30 enzyme (in words) (ST3O): well
NeuAcα2,3Galβ1,4Glcβ1-Cer [NeuAcα2,3Galβ1,4Glcβ1-Cer (GM3)] | – | 0.1% | 0% | –
intact fetuin: glycoprotein examined as acceptor | not any significant amount of sialic acid incorporated | – | – | –
α1 -acid glycoprotein: intact glycoprotein examined as acceptor | not any significant amount of sialic acid incorporated | – | – | –
Galβ1,4Glcβ1-Cer [Galβ1,4Glcβ1-Cer (LacCer)] | low but significant level incorporation | 0.1% | 0% | –
CC(=O)N[C@H]1[C@H](O[C@H]2[C@@H](O)[C@@H](CO)O[C@@H](O[C@H]3[C@H](O)[C@@H](O)C(O)O[C@@H]3CO)[C@@H]2O)O[C@H](CO)[C@@H](O[C@@H]2O[C@H](CO)[C@H](O)[C@H](O)[C@H]2O)[C@@H]1O[C@@H]1O[C@@H](C)[C@@H](O)[C@@H](O)[C@@H]1O (stereo partly drawn) [Galβ1,4(Fucα1,3)GlcNAcβ1,3Galβ1,4Glc] | – | 0% | 0% | Relative rate (%) ST3N (ST3N; acceptor 2.0 mM): 0%
CC(=O)N[C@H]1[C@H](O[C@H]2[C@@H](O)[C@@H](CO)O[C@@H](O[C@H]3[C@H](O)[C@@H](O)C(O)O[C@@H]3CO)[C@@H]2O)O[C@H](CO)[C@@H](O)[C@@H]1O[C@@H]1O[C@H](CO)[C@H](O)[C@H](O)[C@H]1O (stereo partly drawn) [Galβ1,3GlcNAcβ1,3Galβ1,4Glc (LNT), Galβ1,3GlcNAcβ1,3Galβ1,4Glc] | – | 0.5% | 100% | Relative rate (%) ST3N (ST3N; acceptor 2.0 mM): 100%; Relative activity (%) Rat (rat ST3N): 100%
CC(=O)N[C@H]1[C@H](O[C@H]2[C@@H](O)[C@@H](CO)O[C@@H](O[C@H]3[C@H](O)[C@@H](O)C(O)O[C@@H]3CO)[C@@H]2O)O[C@H](CO)[C@@H](O[C@@H]2O[C@H](CO)[C@H](O)[C@H](O)[C@H]2O)[C@@H]1O (stereo partly drawn) [Galβ1,4GlcNAcβ1,3Galβ1,4Glc (LNnT), Galβ1,4GlcNAcβ1,3Galβ1,4Glc] | – | 0% | 4% | Relative rate (%) ST3N (ST3N; acceptor 2.0 mM): 18%; Relative activity (%) Rat (rat ST3N): 4%
CC(=O)N[C@H]1C(O)O[C@H](CO)[C@@H](O)[C@@H]1O[C@@H]1O[C@H](CO)[C@H](O)[C@H](O)[C@H]1O (stereo partly drawn) [Galβ1,3GlcNAc] | – | 2% | 49% | Relative activity (%) Rat (rat ST3N): 49%; Relative activity (%) Human (human ST3N): 48%
GalNAcβ1,4(NeuAcα2-3)Galβ1,4Glcβ1-Cer | – | 0.3% | 0% | Relative rate (%) ST3 (ST3): 1%
CC(=O)N[C@H]1[C@H](O[C@H]2[C@@H](O)[C@@H](CO)O[C@@H](O[C@H]3[C@H](O)[C@@H](O)C(O)O[C@@H]3CO)[C@@H]2O)O[C@H](CO)[C@@H](O[C@@H]2O[C@@H](C)[C@@H](O)[C@@H](O)[C@@H]2O)[C@@H]1O[C@@H]1O[C@H](CO)[C@H](O)[C@H](O)[C@H]1O (stereo partly drawn) [Galβ1,3(Fucα1,4)GlcNAcβ1,3Galβ1,4Glc] | – | 0% | 0% | Relative rate (%) ST3N (ST3N; acceptor 2.0 mM): 0%
Galβ1,3GalNAcβ1,4(NeuAcα2-3)Galβ1,4Glcβ1-Cer | also serving as substrates, but to a lesser extent | 47% | 0% | acceptor substrate for ST30 enzyme (in words) (ST3O): well
CC(=O)N[C@H]1C(O)O[C@H](CO)[C@H](O)[C@@H]1O[C@@H]1O[C@H](CO)[C@H](O)[C@H](O)[C@H]1O (stereo partly drawn) [Galβ1,3GalNAc] | – | 100% | 3% | Relative rate (%) ST3N (ST3N; acceptor 2.0 mM): 10%
GalNAcβ1,4Galβ1,4Glcβ1-Cer [GalNAcβ1,4Galβ1,4Glcβ1-Cer (Asialo-GM2)] | – | 0.5% | 0% | –
Galβ1,4GlcNAcβ1,3Galβ1,4Glcβ1-Cer [Galβ1,4GlcNAcβ1,3Galβ1,4Glcβ1-Cer (nLc4)] | also serving as substrates, but to a lesser extent | – | – | –
porcine Galβ1,3GalNAc α2,3 sialyltransferase (protein) NYSHTVVTTAWFPKQMVIELSENFKKLMKYPYRPCTCTRCIEEQRVSAWFDERFNRSMQPLLTAKNAHLEEDTYKWWLRLQREKQPNNLNDTIRELFQVVPGNVDPLLEKRLVSCRRCAVVGNSGNLKESYYGPQIDSHDFVLRMNKAPTEGFEADVGSKTTHHFVYPESFRELAQEVSMILVPFKTTDLEWVISATTTGTISHTYVPVPAKIKVKKEKILIYHPAFIKYVFDRWLQGHGRYPSTGILSVIFSLHICDEVDLYGFGADSKGNWHHYWENNPSAGAFRKTGVHDGDFESNVTTILASINKIRIFKGR | – | – | – | specific activity [1]: 8-10 units/mg protein
Form A: 48 kDa molecular weight form of the porcine liver α2,3 sialyltransferase (protein) TLKLLTLLVLFIFLTSFFLNYSHTVVTTAWFPKQMVIELSENFKKLMKYPYRPCTCTRCIEEQRVSAWFDERFNRSMQPLLTAKNAHLEEDTYKWWLRLQREKQPNNLNDTIRELFQVVPGNVDPLLEKRLVSCRRCAVVGNSGNLKESYYGPQIDSHDFVLRMNKAPTEGFEADVGSKTTHHFVYPESFRELAQEVSMILVPFKTTDLEWVISATTTGTISHTYVPVPAKIKVKKEKILIYHPAFIKYVFDRWLQGHGRYPSTGILSVIFSLHICDEVDLYGFGADSKGNWHHYWENNPSAGAFRKTGVHDGDFESNVTTILASINKIRIFKGR | – | – | – | specific activity [1]: 8-10 units/mg protein
